Measurements as given in ChEMBL document CHEMBL1157802, “5-Functionalized indazoles as glucocorticoid receptor agonists” (Bioorg Med Chem Lett, 2010).
The source made the active and inactive calls. No cut-off for these calls is given here.

Legend:
[1] = Inhibition of GABAA receptor agonist site at 1 uM; format: functional
[2] = biological target: Adenosine receptor A2a (Homo sapiens) (UniProt P29274); assay: Inhibition of adenosine A2A receptor at 1 uM
[3] = Inhibition of central benzodiazepine receptor at 1 uM
[4] = biological target: Mu-type opioid receptor (Homo sapiens) (UniProt P35372); assay: Inhibition of mu opioid receptor at 1 uM
[5] = biological target: Beta-1 adrenergic receptor (Homo sapiens) (UniProt P08588); assay: Inhibition of adrenergic beta-1 receptor at 1 uM
Chain of Beta-1 adrenergic receptor (Homo sapiens) (P08588 whole entry, looked up): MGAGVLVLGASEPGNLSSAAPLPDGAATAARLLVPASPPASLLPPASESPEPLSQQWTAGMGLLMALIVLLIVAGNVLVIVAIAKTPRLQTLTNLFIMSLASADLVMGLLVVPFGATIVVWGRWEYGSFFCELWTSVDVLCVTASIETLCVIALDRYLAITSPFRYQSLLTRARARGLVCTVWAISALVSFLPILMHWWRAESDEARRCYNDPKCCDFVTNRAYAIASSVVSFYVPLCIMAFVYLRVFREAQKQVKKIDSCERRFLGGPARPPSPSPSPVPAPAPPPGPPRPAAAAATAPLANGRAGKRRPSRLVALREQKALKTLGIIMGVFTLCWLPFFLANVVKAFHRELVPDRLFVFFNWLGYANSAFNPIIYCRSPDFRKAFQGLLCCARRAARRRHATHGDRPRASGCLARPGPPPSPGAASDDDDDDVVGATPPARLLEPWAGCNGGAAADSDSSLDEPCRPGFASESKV

[6] = biological target: Prostaglandin E2 receptor EP4 subtype (Homo sapiens) (UniProt P35408); assay: Inhibition of prostanoid EP4 receptor at 1 uM
[7] = Inhibition of central imidazoline I2 receptor at 1 uM
[8] = Inhibition of nicotinic bungarotoxin-sensitive acetylcholine receptor at 1 uM
[9] = Selectivity for human glucocorticoid receptor over androgen receptor
[10] = Selectivity for human glucocorticoid receptor over ERbeta
[11] = Inhibition of ATP-sensitive potassium channel at 1 uM
[12] = Inhibition of NMDA receptor at 1 uM
[13] = Inhibition of phencyclidine receptor at 1 uM
[14] = Inhibition of phorbol ester site of PKC at 1 uM
[15] = biological target: T1, Adenosine receptor A1 (Homo sapiens) (UniProt P30542); assay: Inhibition of adenosine A1 receptor at 1 uM
T1 sequence (whole entry): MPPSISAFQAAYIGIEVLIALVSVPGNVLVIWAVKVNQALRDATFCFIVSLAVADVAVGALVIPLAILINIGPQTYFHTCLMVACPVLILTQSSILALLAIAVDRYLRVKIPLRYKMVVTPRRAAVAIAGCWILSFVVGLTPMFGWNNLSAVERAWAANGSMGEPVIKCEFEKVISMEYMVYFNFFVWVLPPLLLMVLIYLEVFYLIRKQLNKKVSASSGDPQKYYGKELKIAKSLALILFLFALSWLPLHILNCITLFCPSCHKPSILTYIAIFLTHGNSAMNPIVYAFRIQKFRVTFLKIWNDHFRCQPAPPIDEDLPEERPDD

[16] = Selectivity for human glucocorticoid receptor over progesterone receptor
[17] = biological target: T2, Alpha-1B adrenergic receptor (Homo sapiens) (UniProt P35368); assay: Inhibition of adrenergic Alpha-1B receptor at 1 uM
T2 sequence (whole entry): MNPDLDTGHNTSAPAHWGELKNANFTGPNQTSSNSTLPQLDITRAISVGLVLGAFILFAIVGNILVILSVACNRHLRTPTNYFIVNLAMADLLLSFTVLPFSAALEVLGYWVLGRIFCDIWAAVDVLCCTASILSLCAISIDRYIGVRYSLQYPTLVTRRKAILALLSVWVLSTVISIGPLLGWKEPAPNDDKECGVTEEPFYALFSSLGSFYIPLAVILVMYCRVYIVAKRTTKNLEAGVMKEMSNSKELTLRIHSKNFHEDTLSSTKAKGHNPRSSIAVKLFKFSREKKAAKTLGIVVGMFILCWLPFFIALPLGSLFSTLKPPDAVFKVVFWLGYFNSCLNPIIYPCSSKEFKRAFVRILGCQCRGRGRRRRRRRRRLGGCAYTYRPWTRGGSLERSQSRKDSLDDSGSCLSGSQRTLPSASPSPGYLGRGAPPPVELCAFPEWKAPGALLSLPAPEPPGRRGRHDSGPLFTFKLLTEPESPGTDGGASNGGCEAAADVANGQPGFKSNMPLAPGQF

[18] = Inhibition of nicotinic acetylcholine receptor at 1 uM
[19] = biological target: Muscarinic acetylcholine receptor M3 (Homo sapiens) (UniProt P20309); assay: Inhibition of muscarinic M3 receptor at 1 uM
Chain of Muscarinic acetylcholine receptor M3 (Homo sapiens) (P20309 whole entry, looked up): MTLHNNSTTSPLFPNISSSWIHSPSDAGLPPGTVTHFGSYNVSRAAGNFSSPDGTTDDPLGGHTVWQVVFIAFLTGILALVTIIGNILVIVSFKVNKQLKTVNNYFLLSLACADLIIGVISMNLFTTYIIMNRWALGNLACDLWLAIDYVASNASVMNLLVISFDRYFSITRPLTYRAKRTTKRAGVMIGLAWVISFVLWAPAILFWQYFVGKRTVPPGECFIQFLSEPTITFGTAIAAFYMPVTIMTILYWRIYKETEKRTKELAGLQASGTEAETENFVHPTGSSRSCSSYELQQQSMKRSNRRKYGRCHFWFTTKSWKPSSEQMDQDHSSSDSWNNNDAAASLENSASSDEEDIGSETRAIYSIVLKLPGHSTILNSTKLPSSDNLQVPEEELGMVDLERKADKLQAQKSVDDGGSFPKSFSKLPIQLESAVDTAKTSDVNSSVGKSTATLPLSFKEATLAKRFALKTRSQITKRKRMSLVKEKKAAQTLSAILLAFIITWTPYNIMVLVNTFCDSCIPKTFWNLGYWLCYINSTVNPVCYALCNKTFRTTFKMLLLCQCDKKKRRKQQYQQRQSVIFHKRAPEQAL

[20] = biological target: D(1A) dopamine receptor (Homo sapiens) (UniProt P21728); assay: Inhibition of dopamine D1 receptor at 1 uM
Chain of D(1A) dopamine receptor (Homo sapiens) (P21728 whole entry): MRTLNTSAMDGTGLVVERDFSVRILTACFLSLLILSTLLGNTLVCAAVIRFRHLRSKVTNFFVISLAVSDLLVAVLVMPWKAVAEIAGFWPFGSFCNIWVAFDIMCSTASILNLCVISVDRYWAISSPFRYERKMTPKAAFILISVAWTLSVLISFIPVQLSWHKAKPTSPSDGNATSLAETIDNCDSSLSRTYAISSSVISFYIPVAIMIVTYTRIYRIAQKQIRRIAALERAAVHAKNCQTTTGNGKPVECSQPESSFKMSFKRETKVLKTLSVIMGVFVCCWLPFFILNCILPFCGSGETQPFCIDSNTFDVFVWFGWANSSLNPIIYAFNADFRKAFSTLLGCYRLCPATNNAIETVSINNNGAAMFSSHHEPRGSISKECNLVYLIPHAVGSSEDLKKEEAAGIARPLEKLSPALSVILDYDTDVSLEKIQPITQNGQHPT

[21] = biological target: Sigma non-opioid intracellular receptor 1 (Homo sapiens) (UniProt Q99720); assay: Inhibition of sigma 1 receptor at 1 uM
Chain of Sigma non-opioid intracellular receptor 1 (Homo sapiens) (Q99720 whole entry): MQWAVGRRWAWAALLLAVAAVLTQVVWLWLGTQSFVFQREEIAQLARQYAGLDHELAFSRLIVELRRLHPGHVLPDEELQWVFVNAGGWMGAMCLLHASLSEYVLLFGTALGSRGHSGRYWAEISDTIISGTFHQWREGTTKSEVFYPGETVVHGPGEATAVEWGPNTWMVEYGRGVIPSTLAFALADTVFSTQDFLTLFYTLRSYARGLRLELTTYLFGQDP

[22] = biological target: D(2) dopamine receptor (Homo sapiens) (UniProt P14416); assay: Inhibition of dopamine D2S receptor at 1 uM
Chain of D(2) dopamine receptor (Homo sapiens) (P14416 whole entry): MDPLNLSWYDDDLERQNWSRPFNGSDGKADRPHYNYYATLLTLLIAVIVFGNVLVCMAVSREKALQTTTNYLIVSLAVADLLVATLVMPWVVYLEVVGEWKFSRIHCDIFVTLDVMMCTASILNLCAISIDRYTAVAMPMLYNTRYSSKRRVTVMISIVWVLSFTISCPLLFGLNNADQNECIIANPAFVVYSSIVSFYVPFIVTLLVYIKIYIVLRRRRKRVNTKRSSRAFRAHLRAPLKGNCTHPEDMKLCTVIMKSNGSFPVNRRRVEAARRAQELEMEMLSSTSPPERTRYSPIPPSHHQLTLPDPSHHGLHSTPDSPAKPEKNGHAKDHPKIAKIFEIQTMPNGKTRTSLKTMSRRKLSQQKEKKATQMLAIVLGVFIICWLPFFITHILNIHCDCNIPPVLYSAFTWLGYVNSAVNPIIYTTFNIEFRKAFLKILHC

[23] = Selectivity for human glucocorticoid receptor over ERalpha
[24] = Inhibition of rolipram binding site at 1 uM
[25] = biological target: T3, Muscarinic acetylcholine receptor M2 (Homo sapiens) (UniProt P08172); assay: Inhibition of muscarinic M2 receptor at 1 uM
T3 sequence (whole entry): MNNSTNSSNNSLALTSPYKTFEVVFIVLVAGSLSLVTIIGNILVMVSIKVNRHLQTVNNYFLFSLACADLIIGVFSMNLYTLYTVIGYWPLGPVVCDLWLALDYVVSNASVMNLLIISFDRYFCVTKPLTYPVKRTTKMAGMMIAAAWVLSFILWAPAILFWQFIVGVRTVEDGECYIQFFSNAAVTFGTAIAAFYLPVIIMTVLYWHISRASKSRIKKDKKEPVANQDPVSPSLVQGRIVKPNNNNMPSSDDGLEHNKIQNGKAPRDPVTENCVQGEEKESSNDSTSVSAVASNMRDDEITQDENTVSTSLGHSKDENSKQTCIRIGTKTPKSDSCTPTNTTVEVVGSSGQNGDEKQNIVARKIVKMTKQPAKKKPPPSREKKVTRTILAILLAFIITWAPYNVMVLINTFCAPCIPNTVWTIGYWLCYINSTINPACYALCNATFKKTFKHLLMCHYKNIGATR

[26] = biological target: T4, Alpha-2A adrenergic receptor (Homo sapiens) (UniProt P08913); assay: Inhibition of adrenergic alpha2A receptor at 1 uM
T4 sequence (whole entry): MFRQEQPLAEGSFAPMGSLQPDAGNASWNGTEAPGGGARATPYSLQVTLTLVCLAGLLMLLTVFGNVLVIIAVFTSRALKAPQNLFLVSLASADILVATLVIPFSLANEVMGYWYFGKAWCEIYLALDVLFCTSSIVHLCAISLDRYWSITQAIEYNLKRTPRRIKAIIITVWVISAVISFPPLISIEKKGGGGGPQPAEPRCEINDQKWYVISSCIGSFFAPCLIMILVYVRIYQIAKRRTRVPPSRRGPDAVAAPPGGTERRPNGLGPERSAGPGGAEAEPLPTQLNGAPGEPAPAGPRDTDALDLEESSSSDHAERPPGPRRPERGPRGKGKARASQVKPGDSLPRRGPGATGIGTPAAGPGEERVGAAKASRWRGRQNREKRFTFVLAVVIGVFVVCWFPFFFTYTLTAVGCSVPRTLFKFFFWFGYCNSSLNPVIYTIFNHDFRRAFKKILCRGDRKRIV

[27] = Inhibition of calcium channel L type dihydropyridine binding site at 1 uM
[28] = biological target: Beta-2 adrenergic receptor (Homo sapiens) (UniProt P07550); assay: Inhibition of adrenergic beta2 receptor at 1 uM
[29] = Inhibition of sigma 2 receptor at 1 uM
[30] = biological target: Histamine H1 receptor (Homo sapiens) (UniProt P35367); assay: Inhibition of histamine H1 receptor at 1 uM
Chain of Histamine H1 receptor (Homo sapiens) (P35367 whole entry): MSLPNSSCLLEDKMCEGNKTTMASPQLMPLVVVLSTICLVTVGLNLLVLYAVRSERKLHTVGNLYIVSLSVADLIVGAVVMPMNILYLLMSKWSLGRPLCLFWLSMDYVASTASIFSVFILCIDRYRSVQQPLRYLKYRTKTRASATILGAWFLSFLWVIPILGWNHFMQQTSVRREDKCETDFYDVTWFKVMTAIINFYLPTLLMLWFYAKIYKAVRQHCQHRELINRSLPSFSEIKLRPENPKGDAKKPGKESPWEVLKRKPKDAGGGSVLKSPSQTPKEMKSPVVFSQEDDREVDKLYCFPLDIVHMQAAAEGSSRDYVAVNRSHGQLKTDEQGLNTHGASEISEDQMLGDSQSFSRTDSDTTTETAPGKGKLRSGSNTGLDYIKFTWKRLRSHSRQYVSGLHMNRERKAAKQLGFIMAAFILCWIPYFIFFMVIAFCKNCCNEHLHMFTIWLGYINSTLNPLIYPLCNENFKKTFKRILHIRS

[31] = system: Mus musculus; assay: Antiinflammatory activity in mouse assessed as reduction of LPS-stimulated TNFalpha expression at 30 mg/kg relative to control; format: functional, organism-based; design: dose 30 mg/kg
[32] = biological target: Sodium-dependent noradrenaline transporter (Homo sapiens) (UniProt P23975); assay: Inhibition of norepinephrine transporter at 1 uM
[33] = Inhibition of sodium channel site 2 at 1 uM
[34] = biological target: T5, Alpha-1A adrenergic receptor (Homo sapiens) (UniProt P35348); assay: Inhibition of adrenergic alpha1A receptor at 1 uM
T5 sequence (whole entry): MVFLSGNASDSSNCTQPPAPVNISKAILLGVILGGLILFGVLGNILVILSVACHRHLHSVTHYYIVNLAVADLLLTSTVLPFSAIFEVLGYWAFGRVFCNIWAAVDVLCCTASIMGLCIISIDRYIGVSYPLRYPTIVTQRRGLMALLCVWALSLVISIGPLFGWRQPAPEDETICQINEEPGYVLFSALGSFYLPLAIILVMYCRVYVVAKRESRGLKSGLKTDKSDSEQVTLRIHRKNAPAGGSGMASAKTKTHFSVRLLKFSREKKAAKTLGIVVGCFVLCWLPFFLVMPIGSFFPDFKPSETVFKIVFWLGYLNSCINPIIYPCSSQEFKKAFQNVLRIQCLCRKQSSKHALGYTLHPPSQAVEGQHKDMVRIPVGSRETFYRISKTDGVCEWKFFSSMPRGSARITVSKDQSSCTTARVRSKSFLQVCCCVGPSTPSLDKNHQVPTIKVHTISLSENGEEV

[35] = biological target: T6, Glucocorticoid receptor (Homo sapiens, UniProt P04150); assay: Agonist activity at glucocorticoid receptor in human MDA-kb2 cells transfected with MMTV-LUC assessed as induction of MMTV-LTR/promoter linked LUC gene by luciferase transactivation assay; format: functional, cell-based; details: read-out: EC50
T6 sequence (P04150 whole entry): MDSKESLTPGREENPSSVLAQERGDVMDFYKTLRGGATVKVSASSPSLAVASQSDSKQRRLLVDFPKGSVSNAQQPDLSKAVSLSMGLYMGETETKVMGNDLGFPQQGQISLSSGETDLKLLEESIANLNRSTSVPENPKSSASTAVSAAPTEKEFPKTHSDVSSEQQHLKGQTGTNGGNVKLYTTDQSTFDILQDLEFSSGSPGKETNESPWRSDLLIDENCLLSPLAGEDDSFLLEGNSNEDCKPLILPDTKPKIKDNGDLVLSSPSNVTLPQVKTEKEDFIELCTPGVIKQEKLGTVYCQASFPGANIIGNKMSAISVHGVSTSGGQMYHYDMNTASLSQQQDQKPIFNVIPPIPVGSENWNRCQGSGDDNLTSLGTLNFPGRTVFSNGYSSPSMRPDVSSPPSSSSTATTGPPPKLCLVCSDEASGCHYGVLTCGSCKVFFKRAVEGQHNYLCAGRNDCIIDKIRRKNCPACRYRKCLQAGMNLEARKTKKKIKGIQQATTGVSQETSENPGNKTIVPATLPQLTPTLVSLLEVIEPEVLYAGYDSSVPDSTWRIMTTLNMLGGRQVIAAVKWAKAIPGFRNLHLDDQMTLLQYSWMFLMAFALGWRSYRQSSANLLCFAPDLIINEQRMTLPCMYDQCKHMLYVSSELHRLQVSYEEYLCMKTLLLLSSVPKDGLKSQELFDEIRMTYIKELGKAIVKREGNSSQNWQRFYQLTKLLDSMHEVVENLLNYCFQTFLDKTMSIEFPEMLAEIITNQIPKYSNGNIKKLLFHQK

[36] = system: Mus musculus; assay: Antiinflammatory activity in mouse assessed as reduction of LPS-stimulated TNFalpha expression at 6 mg/kg relative to control; format: functional; design: scale not given: the % may be the effect or the level left
[37] = system: Mus musculus; assay: Antiinflammatory activity in mouse assessed as reduction of LPS-stimulated TNFalpha expression at 3 mg/kg relative to control; format: functional; design: scale not given: the % may be the effect or the level left
[38] = biological target: T6, Glucocorticoid receptor
Description: Binding affinity to human glucocorticoid receptor by fluorescence polarization competitive binding assay

[39] = biological target: Voltage-gated inwardly rectifying potassium channel KCNH2 (Homo sapiens, UniProt Q12809); assay: Inhibition of human ERG by patch clamp method
Chain of Voltage-gated inwardly rectifying potassium channel KCNH2 (Q12809 whole entry): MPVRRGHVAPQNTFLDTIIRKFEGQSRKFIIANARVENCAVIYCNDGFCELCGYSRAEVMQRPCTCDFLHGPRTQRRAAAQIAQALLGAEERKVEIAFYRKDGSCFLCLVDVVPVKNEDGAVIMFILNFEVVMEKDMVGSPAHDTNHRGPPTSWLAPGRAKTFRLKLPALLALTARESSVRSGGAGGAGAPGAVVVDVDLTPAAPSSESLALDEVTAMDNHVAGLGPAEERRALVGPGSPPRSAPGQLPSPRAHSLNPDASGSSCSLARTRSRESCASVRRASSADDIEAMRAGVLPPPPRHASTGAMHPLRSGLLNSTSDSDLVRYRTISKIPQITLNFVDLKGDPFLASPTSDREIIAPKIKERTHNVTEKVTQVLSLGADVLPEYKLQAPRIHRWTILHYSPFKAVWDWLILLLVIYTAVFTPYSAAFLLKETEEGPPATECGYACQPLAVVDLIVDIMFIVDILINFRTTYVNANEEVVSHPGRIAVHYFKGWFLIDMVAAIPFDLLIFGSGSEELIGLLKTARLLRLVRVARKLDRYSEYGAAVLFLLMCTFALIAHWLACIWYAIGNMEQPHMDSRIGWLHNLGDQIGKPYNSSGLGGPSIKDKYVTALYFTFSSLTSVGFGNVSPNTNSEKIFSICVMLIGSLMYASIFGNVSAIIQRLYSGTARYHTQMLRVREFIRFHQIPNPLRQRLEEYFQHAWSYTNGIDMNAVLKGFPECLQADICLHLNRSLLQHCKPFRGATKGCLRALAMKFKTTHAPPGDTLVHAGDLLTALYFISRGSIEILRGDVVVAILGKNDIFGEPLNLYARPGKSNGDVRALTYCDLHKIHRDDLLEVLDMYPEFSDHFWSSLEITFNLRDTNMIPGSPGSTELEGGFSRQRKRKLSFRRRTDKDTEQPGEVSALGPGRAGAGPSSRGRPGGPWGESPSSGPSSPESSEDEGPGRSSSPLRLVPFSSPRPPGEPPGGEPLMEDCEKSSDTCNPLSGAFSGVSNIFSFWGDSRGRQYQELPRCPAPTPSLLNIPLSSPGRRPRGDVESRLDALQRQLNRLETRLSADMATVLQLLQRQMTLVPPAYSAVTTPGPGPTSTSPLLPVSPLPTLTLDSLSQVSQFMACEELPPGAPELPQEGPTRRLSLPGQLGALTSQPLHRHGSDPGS

[40] = biological target: hERG (KCNH2) (Homo sapiens, UniProt Q12809); assay: Inhibition of human ERG at 1 uM
Chain of hERG (KCNH2) (Q12809 whole entry): as above

[41] = system: Mus musculus; assay: Antiinflammatory activity in mouse assessed as reduction of LPS-stimulated TNFalpha expression at 60 mg/kg relative to control; format: functional; design: scale not given: the % may be the effect or the level left
[42] = biological target: T6, Glucocorticoid receptor; assay: Agonist activity at glucocorticoid receptor in human fibroblast assessed as inhibition of IL-1-beta-induced IL6 production treated 1 hr before IL1-beta challenge measured after 24 hrs by transrepression assay; format: functional

For `OC(c1ccc2c(cnn2-c2ccc(F)cc2)c1)(c1cccc(Cl)c1Cl)C(F)(F)F` (single isomer, unassigned; (+)), the inhibition [1] was < 50%, the inhibition [2] was < 50% and the inhibition [3] was < 50%. The inhibition [4] was < 50%, the inhibition [5] was < 50% and the inhibition [6] was < 50%. The inhibition [7] was < 50%, the inhibition [8] was < 50% and the Ratio [9] was > 1000. For the same compound, the Ratio [10] was > 1000, the inhibition [11] was < 50% and the inhibition [12] was < 50%. The inhibition [13] was < 50%, the inhibition [14] was < 50% and the inhibition [15] was < 50%. The Ratio [16] was > 1000, the inhibition [17] was < 50% and the inhibition [18] was < 50%. For the same compound, the inhibition [19] was < 50%, the inhibition [20] was < 50% and the inhibition [21] was < 50%. The inhibition [22] was < 50%, the Ratio [23] was > 1000 and the inhibition [24] was < 50%. The inhibition [25] was < 50%, the inhibition [26] was < 50% and the inhibition [27] was < 50%. The inhibition [28] was < 50%, the inhibition [29] was < 50% and the inhibition [30] was < 50%. The Activity [31] was “Active”, the inhibition [32] was < 50% and the inhibition [33] was < 50%. The inhibition [34] was < 50%.
In the case of `OC(c1ccc2c(cnn2-c2ccc(F)cc2)c1)(c1cccc(Cl)c1Cl)C(F)(F)F` (single isomer, unassigned; (+)) [1-(2,3-DICHLOROPHENYL)-2,2,2-TRIFLUORO-1-(1-(4-FLUOROPHENYL)-1H-INDAZOL-5-YL)ETHANOL (ENANTIOMERIC MIX)], the EC50 [35] is reported as 350 nM, the Activity [36] is reported as 50% and the Activity [37] is reported as 25%. The IC50 [38] was 34 nM, the IC50 [39] was > 10 µM and the inhibition at 1 µM [40] was < 50%. For the same compound, the Activity [41] was 68% and the EC50 [42] was 19 nM.
